Results published in US20070027130A1, “Tricyclic 6-alkylidene-penem beta-lactamase inhibitors and beta-lactam antibiotic combination: a broad spectrum antibiotic” (priority 2005, published 2007).
In brackets after ≈: the same amount, converted by molar mass.

How the values were obtained:
[1] = test system: E. coli GC 4971 OXA-1, TEM-1; experiment: MIC microbroth dilution; format: cell-based; conditions: Escherichia coli, β-lactamase class A, D, MHBII, 35° C. 18 hr, read-out: Minimal Inhibitory Concentration
Protocol: (§1) The in vitro activities of the antibiotics were determined by the microbroth dilution method as recommended by the National Committee for Clinical Laboratory Standards (NCCLS). (NCCLS. 2000. Methods for Dilution Antimicrobial Susceptibility Tests for Bacteria That Grow Aerobically; Approved Standards: M7-A5, vol. 19. National Committee for Clinical Laboratory Standards, Villanova, Pa.). Mueller-Hinton II broth (MHBII) (BBL Cockeysville, Md.), was used for the testing procedure. […]. The plates were incubated for 18-22 hours at 35 C. in ambient air.

[2] = test system: E. coli GC 1807 OXA-7; experiment: MIC microbroth dilution; format: cell-based; conditions: Escherichia coli, GC1807OXA7, β-lactamase class D, MHBII, 35° C. 18 hr, read-out: Minimal Inhibitory Concentration
Protocol: as §1

[3] = test system: S. typhimurium GC 4197 CTX-M-5; experiment: MIC microbroth dilution; format: cell-based; conditions: Salmonella enterica, β-lactamase class A (ESBL), MHBII, 35° C. 18 hr, read-out: Minimal Inhibitory Concentration
Protocol: as §1

[4] = test system: P. aeruginosa PT 8503 PTZ-R; experiment: MIC microbroth dilution; format: cell-based; conditions: Pseudomonas aeruginosa, PT8503PTZR; P. aeruginosa PT 8503, piperacillin-tazobactam-resistant; MHBII, 35° C. 18 hr; read-out: Minimal Inhibitory Concentration
Protocol: as §1

[5] = test system: K. pneumoniae GC 7824 Fox 5; experiment: MIC microbroth dilution; format: cell-based; conditions: Klebsiella pneumoniae, GC7824FOX5, β-lactamase class C, MHBII, 35° C. 18 hr, read-out: Minimal Inhibitory Concentration
Protocol: as §1

[6] = test system: K. pn GC 1516 (TEM-26); experiment: MIC microbroth dilution; format: cell-based; conditions: Klebsiella pneumoniae, β-lactamase class A (ESBL), MHBII, 35° C. 18 hr, read-out: Minimal Inhibitory Concentration
Protocol: as §1

[7] = test system: E. coli GC 2894 (AmpC); experiment: MIC microbroth dilution; format: cell-based; conditions: Escherichia coli, β-lactamase class C, MHBII, 35° C. 18 hr, read-out: Minimal Inhibitory Concentration
Protocol: as §1

[8] = test system: K. pn GC 2391 (pl 5.4; 5.6; 7.6; 8.7 B-lactamases); experiment: MIC microbroth dilution; format: cell-based; conditions: Klebsiella pneumoniae, β-lactamase class A, A (ESBL), C (presumed), MHBII, 35° C. 18 hr, read-out: Minimal Inhibitory Concentration
Protocol: as §1

[9] = test system: E. coli GC 2253 (IRT-2); experiment: MIC microbroth dilution; format: cell-based; conditions: Escherichia coli, 18 h, read-out: Minimal Inhibitory Concentration
Protocol: as §1

[10] = test system: K. pn GC 2006 (TEM-10 + SHV-1); experiment: MIC microbroth dilution; format: cell-based; conditions: Klebsiella pneumoniae, β-lactamase class A, A (ESBL), MHBII, 35° C. 18 hr, read-out: Minimal Inhibitory Concentration
Protocol: as §1

[11] = test system: K. pneumoniae GC 7636 TEM-1 KPC-2 SHV-12; experiment: MIC microbroth dilution; format: cell-based; conditions: Klebsiella pneumoniae, 18 h, read-out: Minimal Inhibitory Concentration
Protocol: as §1

[12] = test system: K. pn GC 6655 (TEM-1 + ACT-1); experiment: MIC microbroth dilution; format: cell-based; conditions: Klebsiella pneumoniae, β-lactamase class A, C, MHBII, 35° C. 18 hr, read-out: Minimal Inhibitory Concentration
Protocol: as §1

[13] = test system: E. cloacae PT 967 Inducible AmpC; experiment: MIC microbroth dilution; format: cell-based; conditions: Enterobacter cloacae, β-lactamase class C, MHBII, 35° C. 18 hr, read-out: Minimal Inhibitory Concentration
Protocol: as §1

[14] = test system: K. pn GC 6657 (TEM-1 + SHV-27); experiment: MIC microbroth dilution; format: cell-based; conditions: Klebsiella pneumoniae, β-lactamase class A, A (ESBL), MHBII, 35° C. 18 hr, read-out: Minimal Inhibitory Concentration
Protocol: as §1

[15] = test system: E. coli GC 6265 TEM-1 (LSU-80-8); experiment: In vivo antibacterial protection, infected mice; conditions: 168 h, read-out: ED50 mg/kg/SIV
Protocol: Female mice strain CD-1, approximately 18-22 grams, were received from Charles River Laboratories and quarantined 7 days prior to use.
Clinical isolates that were adapted to cause infection in mice were used in the experiment, including infections with strains of E. coli and E. cloacae.
Mice were challenged by injecting 0.5 ml intraperitoneally of a predetermined bacterial inoculum suspended in 5% hog gastric mucin. The bacterial inoculum was equivalent to 10-100 LD50s of the specific infecting strain and was designed to result in death of the non-treated control animals within 7 days. Antibacterial doses (dose concentration prepared by two fold serial dilutions of the antibiotic or antibiotic/compound combination) were dissolved or suspended in 0.2% aqueous agar (subcutaneous administration) or phosphate buffered saline (intravenous administration) and administered intravenously or subcutaneously in the following manner:
a) Subcutaneously: Dose volume of 0.5 ml was administered ½ hr after infection. […]
A detailed explanation of the protocol for the determination of in vivo efficacy follows: • A) The effectiveness of the lacamase inhibitor compound/cefepime combination was evaluated against a cefepime control. […]
The protective effects of the antibacterial agent(s) were measured by the survival of the infected untreated as compared to the treated animals. […]

CO/N=C(\C(=O)N[C@@H]1C(=O)N2C(C(=O)[O-])=C(C[N+]3(C)CCCC3)CS[C@H]12)c1csc(N)n1 [Cefepime]
MIC [1]: 2 µg/mL (≈ 4.16 µM)
MIC [2]: 0.12 µg/mL (≈ 0.25 µM)
MIC [3]: > 16 µg/mL
MIC [4]: 8 µg/mL
MIC [5]: 2 µg/mL (≈ 4.16 µM)
MIC [6]: > 16 µg/mL
MIC [7]: 2 µg/mL (≈ 4.16 µM)
MIC [8]: 8 µg/mL (≈ 16.6 µM)
MIC [9]: 0.03 µg/mL (≈ 0.0624 µM)
MIC [10]: > 16 µg/mL
MIC [11]: > 16 µg/mL
MIC [12]: 1 µg/mL (≈ 2.08 µM)
MIC [13]: 0.12 µg/mL (≈ 0.25 µM)
MIC [14]: 0.12 µg/mL (≈ 0.25 µM)
ED50 [15]: 0.039 mg/kg
